According to patent US9522921B2, “Photochromic spirooxazine compounds” (Sabic Global Technologies, B.V., priority 2015, dated 2016):

Test: Absorption spectrum in toluene upon irradiation with UV-A radiation
Assay type: physicochemical
Description: The properties of the compound characterized by Structure A were investigated.

CN1c2ccccc2C(C)(C)C12C=Nc1cc(N(c3ccccc3)c3ccc4ccccc4c3)c3ccccc3c1O2 (centres unmarked) [Structure A, 1,3,3-trimethyl-N-(naphthalen-2-yl)-N-phenylspiro[indoline-2,2′-naphtho[1,2-b][1,4]oxazin]-6′-amine]
color displayed upon irradiation (upon irradiation with UV-A radiation): bluish-green color | maximum absorption (upon irradiation with UV-A radiation (open merocyanine form)): 658 nm
